A short description of data set [1]: Plasma and brain exposure assessment. In kind it is in vivo, Mice. Conditions: mouse, ip; for concentration at 30 min: calculated from the brain:plasma ratio determined by LC-MS/MS. On the procedure:
Mice were administered a dose of test compound (10 mg/kg by i.p.) and blood and brain tissue samples collected at the indicated times post drug administration (n=3-5). Blood samples were collected in K-EDTA tubes and centrifuged for ten minutes immediately after collection, and the plasma was stored at −80° C. until analysis. Brains were immediately removed from the skull and the meninges and cerebellum removed, rinsed with ice-cold PBS, weighed and then homogenized at 4° C. in 2-3 volumes of 50 mM potassium phosphate buffer (pH 7.4) and stored at −80° C. until analysis. Plasma and brain homogenates were extracted by the addition of 5 volumes of cold acetonitrile, mixed well by vortexing and centrifuged at 4000 rpm for 15 minutes. The supernatant fractions were analyzed by LC-MS/MS operating in multiple reaction monitoring mode (MRM) and analyzed for the parent compound to determine the plasma or brain concentration. Internal standards were added to calibrate each sample. An eight point standard curve was prepared similarly in naïve plasma and brain for each compound of interest. Based on occupancy studies of other NR2B antagonists in rodents (CP-101,606, Ro25-6981, and Merck20j), plus plasma levels achieved in Preskorn et al., brain exposures for the test compounds were consistent with “anticipated levels” required for efficacy.

Data set [2] deals with NMDA receptor (NR1 + NR2 subunits) (Rattus norvegicus, UniProt P35439+Q00960). Briefly: Two electrode voltage clamp recording from Xenopus laevis oocytes (pH dependence of NMDA antagonism). In kind it is cell-based. To be noted: Table 27; pH not stated; read-out: Rat IC50. The gist of the method: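 Oocytes expressing rat NR1/NR2 were held at −40 mV at 23 °C, 2–7 days after injection, in Ba²⁺ saline with pH adjusted and 10 µM EDTA. Compounds at 4–8 concentrations were co-applied with 50 µM glutamate and 30 µM glycine. Percent of the initial response was leak-corrected, pooled over 3–6 frogs and fitted with a Hill equation (minimum ≥0) to give IC50.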
In general terms: Two-electrode voltage clamp is typically applied to oocytes expressing channels or transporters.

The subject of a further data set is CD1 mice. Briefly: Forced swim model (depression result). Conditions: i.p. The class given is in vivo. The protocol: CD1 mice were adminstered a compounds shown in Table 11, desipramine, Ro 25-6981 or a control vehicle and subjected to a forced swim test. All compounds were administered as intraperitoneal injections. Animals were placed into a beaker (15 cm diameter) of water held at 25° C. with a depth of 15 cm 30 min after compound administration. Behavior was videotaped for 6 minutes from the side of the beaker and scored subsequently for struggling behavior. Results were analyzed by one-way ANOVA and post-hoc Bonferroni tests. Total immobility time refers to the time that the animal spends floating or engaged in minimal activity to keep afloat for at least 3 seconds. Subtle movements of feet, tail or head required to maintain the eyes, ears, and nose above the surface of the water were excluded as immobility. The video-tapes were scored by investigators unfamiliar with the treatments of the mice.
For the data in FIG. 1, test compounds were tested at a dose of 10 mg/ kg. Desipramine was tested at a dose of 20 mg/kg. Ro 25-6981 was tested at a dose of 5 mg/kg. Number of CD1 mice tested per groups was 8-10. ANOVA: F(11,98)=3.638, p<0.01. *=p<0.05 compared to vehicle. +=p<0.05 compared to desipramine.
For the data in FIG. 2, compounds NP10075 and NP10076 were tested at doses of 5 mg/kg, 7.5 mg/kg and 10 mg/kg; desipramine was tested at a dose of 20 mg/kg; and Ro 25-6981 was tested at a dose of 5 mg/kg. Number of CD1 mice tested per group was 8-10. *=p<0.05, **=p<0.01 ANOVA, post-hoc Bonferroni from control.

Data set [3] has as its system Salmonella typhimurium TA98, TA102. Briefly: Ames test for genotoxicity. To be noted: 8 conc., 1.5-5000 μg/plate; +/− S9 both; strains TA98, TA102. The protocol:
The Ames test determines the ability of a compound to reverse an introduced mutation in two strains of Salmonella typhimurium (selected from TA98, TA100, TA15345, TA1537, and TA102). (See for example Maron, D. M. and Ames, B. N., Mutat. Res., 1983, 113, 173-215.) Compounds were tested at eight dose levels 1.5, 5, 15, 50, 150, 500, 1500, and 5000 μg/plate in both the presence and absence of S-9 microsomal fraction in two bacterial strains (TA98, TA102). After incubation at 37° the number of revertant colonies was compared with the number of spontaneous revertants on negative (vehicle) plates. Positive control plates containing a known mutagen active in each of the strains in the presence of S-9 extract (2-aminoanthracene at 1-5 ug/plate) were also run.
(In general: In the Ames test, an excess of revertant colonies over the control signals mutagenicity.)

The next data set relates to mice. Description: Open field activity test. In kind it is in vivo. Conditions: 10 mg/kg, intraperitoneal. On the procedure: Spontaneous activity was evaluated in an automated Omnitech Digiscan apparatus (AccuScan Instruments, Columbus, Ohio). Animals were given vehicle, imipramine, or a dose of a test compound. All compounds were administered as intraperitoneal injections. Activity was summated at 5 minute intervals over the 90 min period of testing. At 60 minutes, the mice were injected with 10 mg/kg NP10075, 10 mg/kg NP10076 or a vehicle. Locomotion was measured in terms of the total distance traveled (horizontal activity). Results were analyzed by one-way ANOVA and post-hoc Bonferroni tests.

Setting [4] is: plasma (free, unbound), mice 10 mg/kg i.p., 30 minute, based on % free fraction measured in protein binding study, read-out: Free Plasma.
Setting [5] is: plasma (free, unbound), mice 10 mg/kg i.p., 30 minute, based on % free fraction, read-out: Free Plasma.
Where [6] appears, read: plasma, mice dosed 10 mg/kg, i.p., 30 minute time point, LC-MS/MS, read-out: Plasma.

These results are taken from patent publication US20110160223A1, “NMDA Receptor Antagonists for the Treatment of Neuropsychiatric Disorders” (priority 2008, published 2011).

Like-named read-outs stand apart in the source and are kept apart here.

Sequence of NMDA receptor (NR1 + NR2 subunits) (Q00960 27-1482, other chains not shown): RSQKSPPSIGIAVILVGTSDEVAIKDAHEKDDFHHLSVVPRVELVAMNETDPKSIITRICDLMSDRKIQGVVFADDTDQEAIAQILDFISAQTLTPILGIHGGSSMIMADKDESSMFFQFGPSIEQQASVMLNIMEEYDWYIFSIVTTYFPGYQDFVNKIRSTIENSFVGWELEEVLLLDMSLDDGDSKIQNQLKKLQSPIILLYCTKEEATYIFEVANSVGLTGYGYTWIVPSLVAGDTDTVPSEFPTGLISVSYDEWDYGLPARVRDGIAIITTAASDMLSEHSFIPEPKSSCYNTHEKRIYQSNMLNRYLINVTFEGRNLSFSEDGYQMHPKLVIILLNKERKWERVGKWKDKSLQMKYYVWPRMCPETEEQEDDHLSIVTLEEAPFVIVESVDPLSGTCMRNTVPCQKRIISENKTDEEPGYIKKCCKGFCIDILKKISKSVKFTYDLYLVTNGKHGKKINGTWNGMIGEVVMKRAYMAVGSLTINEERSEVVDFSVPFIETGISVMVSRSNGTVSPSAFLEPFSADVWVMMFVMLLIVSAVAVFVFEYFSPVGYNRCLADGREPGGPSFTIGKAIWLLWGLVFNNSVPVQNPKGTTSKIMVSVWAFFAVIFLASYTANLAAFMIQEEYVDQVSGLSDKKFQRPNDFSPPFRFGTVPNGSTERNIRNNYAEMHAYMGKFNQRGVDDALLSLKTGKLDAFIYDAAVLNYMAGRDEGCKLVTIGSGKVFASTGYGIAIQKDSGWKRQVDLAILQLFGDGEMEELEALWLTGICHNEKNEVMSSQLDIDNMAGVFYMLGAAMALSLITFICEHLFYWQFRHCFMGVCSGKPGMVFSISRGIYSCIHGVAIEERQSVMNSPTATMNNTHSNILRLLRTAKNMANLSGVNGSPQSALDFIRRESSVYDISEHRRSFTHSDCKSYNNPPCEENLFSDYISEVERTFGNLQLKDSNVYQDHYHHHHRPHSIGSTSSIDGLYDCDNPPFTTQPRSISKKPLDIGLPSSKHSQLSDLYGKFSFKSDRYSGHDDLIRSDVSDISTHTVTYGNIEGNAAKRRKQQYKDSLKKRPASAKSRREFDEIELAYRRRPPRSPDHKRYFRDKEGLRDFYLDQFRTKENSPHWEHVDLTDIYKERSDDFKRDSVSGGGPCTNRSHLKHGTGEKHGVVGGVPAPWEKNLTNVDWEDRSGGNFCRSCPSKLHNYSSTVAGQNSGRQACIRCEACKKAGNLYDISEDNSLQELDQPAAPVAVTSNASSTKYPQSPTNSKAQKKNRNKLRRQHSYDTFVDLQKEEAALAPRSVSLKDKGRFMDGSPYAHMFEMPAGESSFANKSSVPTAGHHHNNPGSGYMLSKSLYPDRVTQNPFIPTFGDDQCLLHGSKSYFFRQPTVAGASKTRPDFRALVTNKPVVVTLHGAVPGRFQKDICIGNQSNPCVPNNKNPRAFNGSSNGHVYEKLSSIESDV

Take `O=C1N(C[C@H](O)COc2ccc(O)cc2)CCN1c1ccc(Cl)cc1` [NP10076]: the concentration at 30 min in data set [1] (mice 10 mg/kg i.p.) is 64 nM. For the same compound, the concentration at 30 minute in data set [1] (setting [4]) stood at 34 ng/mL; in data set [1] (setting [5]) it was 94 nM; in data set [1] (setting [6]), 377 ng/mL. In addition, the IC50 in data set [2] came out at 72 nM. The “Depression Result” value in the data set on CD1 mice is listed as “active”.
On to `NC(=O)Nc1ccc(OC[C@@H](O)CN2CCN(c3ccc(Cl)cc3)CC2)cc1` [NP10075], for which the “Genotoxicity (Ames) Result” value in data set [3] is on record as “No positive”. Moreover, the concentration at 30 min in data set [1] (mice 10 mg/kg i.p.) was 130 nM. Further, the values for the concentration at 30 minute in data set [1] (setting [4]), in data set [1] (setting [5]) and in data set [1] (setting [6]) were 220 ng/mL, 542 nM and 3140 ng/mL, respectively. The IC50 in data set [2] was determined as 108 nM. For the same compound, the “mouse open field activity (total distance traveled)” value in the data set with mice is on record as “Neither NP10075 or NP10076 altered mouse open field activity”. Besides, the “Depression Result” value in the data set on CD1 mice is listed as “active”.
For the compound `O=C(COc1ccc2[nH]c(=O)oc2c1)N1CCN(c2ccc(Cl)c(Cl)c2)CC1` [NP10068], the concentration at 30 min in data set [1] (mice 10 mg/kg i.p.) is 48 nM. In addition, the results for the concentration at 30 minute in data set [1] (setting [4]), in data set [1] (setting [5]) and in data set [1] (setting [6]) were 61 ng/mL, 145 nM and 679 ng/mL, respectively. Also, in data set [2], the IC50 was found to be 60 nM. Further, the “Depression Result” value in the data set with CD1 mice is listed as “active”.

As a reminder, the IC50 is the concentration at which inhibition is half-maximal.
